pKi: −log10 of the molar value. Read-outs that look alike come from different tables or passages of the source.
What was measured:
[1] = molecular target: single-chain tethered dimer of HIV protease (Human immunodeficiency virus 1, UniProt P04585); experiment: biochemical; format: biochemical; set-up: fused on or other part: A second copy of the same protease unit is joined to the first by a short peptide tether, giving one polypeptide
[2] = tested on: HIV-1 (RF) in MT-2 cells; experiment: microbe, parasite or virus in culture; format: cell-based
Method in brief: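 HIV-1 laboratory strains (RF, MN, IIIB) grown in H9 cells in RPMI 1640 with 5% FCS; infections in MT-2 cells. Viral RNA quantified by hybridization with biotinylated gag/pol capture probes on streptavidin plates and alkaline phosphatase-conjugated reporter probes; BH10 gag-pol in vitro transcripts serve as RNA standards.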

[3] = Table 2d, class symbols, read-out: HPLC K1
[4] = Table 2d, HIV protease inhibition, HPLC method, read-out: HPLC K1
[5] = read-out: HPLC K1, Table 2d, class symbols
[6] = Human immunodeficiency virus 1, MT2, 48 h, Table 2d, class symbols, read-out: IC90

O=C1N(Cc2cccc(CO)c2)C(Cc2ccc(F)c(F)c2)C(O)C(O)C(Cc2ccc(F)c(F)c2)N1Cc1cccc(CO)c1 (stereo not shown) [20AA]
pKi ([1]; Table 2i, read-out: HPLC Ki): > 8.00
IC90 ([2]; Table 2i): +++ (+++=<10 μg/mL)

Cc1cncc(O)c1CN1C(=O)N(Cc2c(C)cncc2O)C(Cc2ccccc2)C(O)C(O)C1Cc1ccccc1 (stereo not shown) [Example 14K]
pKi [1, 3]: 6.00 to 8.00
IC90 ([2]; Table 2d, class symbols): + (+=>100 μg/mL)

O=C1N(Cc2ccccc2)C(Cc2ccccc2)C(O)C(O)C(Cc2ccccc2)N1Cc1ccc2[nH]nnc2c1 (stereo not shown) [15DN]
pKi [1, 4]: > 8.00
IC90 ([2]; Table 2d, HIV RNA assay): +++ (+++=<10 μg/mL)

CNC(=O)c1cccc(CN2C(=O)N(Cc3cccc(C(=O)NC)c3)C(Cc3ccccc3)C(O)C(O)C2Cc2ccccc2)c1 (stereo not shown) [11H]
pKi [1, 5]: > 8.00
IC90 [2, 6]: < 10 µg/mL

O=Cc1cc(CN2C(=O)N(Cc3ccc(O)cc3)C(Cc3ccccc3)C(O)C(O)C2Cc2ccccc2)ccc1O (stereo not shown) [Example 11E]
pKi [1, 5]: > 8.00
IC90 [2, 6]: < 10 µg/mL

O=C1NC(Cc2ccccc2)C(O)C(O)C(Cc2ccccc2)N1CCCCCCO (stereo not shown) [Example 12C]
pKi [1, 5]: > 8.00
IC90 [2, 6]: < 10 µg/mL

COC(=O)c1cccc(CN2C(=O)N(Cc3cccc(C(=O)OC)c3)C(Cc3ccc(F)c(F)c3)C(O)C(O)C2Cc2ccc(F)c(F)c2)c1 (stereo not shown) [20Y]
pKi ([1]; Table 2i, read-out: HPLC Ki): > 8.00
IC90 ([2]; Table 2i): +++ (+++=<10 μg/mL)

COc1cccc(CC2C(O)C(O)C(Cc3cccc(OC)c3)N(Cc3ccccc3)C(=O)N2Cc2ccccc2)c1 (stereo not shown) [Example 20W]
pKi ([1]; Table 2i, read-out: HPLC Ki): > 8.00
IC90 ([2]; Table 2i): +++ (+++=<10 μg/mL)

CC(C)(C)OC(=O)NN=Cc1cccc(CN2C(=O)N(Cc3cccc(C=NNC(=O)OC(C)(C)C)c3)C(Cc3ccccc3)C(O)C(O)C2Cc2ccccc2)c1 (stereo not shown) [15AL]
pKi [1, 4]: 6.00 to 8.00
IC90 ([2]; Table 2d, HIV RNA assay): +++ (+++=<10 μg/mL)

O=C1N(Cc2cccc(C=NCCO)c2)C(Cc2ccccc2)C(O)C(O)C(Cc2ccccc2)N1Cc1cccc(C=NCCO)c1 (stereo not shown) [Example 9J]
pKi [1, 5]: 6.00 to 8.00
IC90 [2, 6]: < 10 µg/mL

COP1(=O)N(Cc2ccc(CO)cc2)[C@H](Cc2ccccc2)[C@H](O)[C@@H](O)[C@@H](Cc2ccccc2)N1Cc1ccc(CO)cc1 (stereo partly shown) [28H]
pKi ([1]; Table 2r, read-out: Ki HPLC): 6.00 to 8.00
IC90 ([2]; Table 2r): ++ (++=10 to 100 μg/mL)

O=C1N(Cc2ccc3[nH]nnc3c2)C(Cc2ccccc2)C(O)C(O)C(Cc2ccccc2)N1CC1CC1 (stereo not shown) [15DP]
pKi [1, 4]: > 8.00
IC90 ([2]; Table 2d, HIV RNA assay): +++ (+++=<10 μg/mL)

NCCCCCCN1C(=O)N(Cc2ccccc2)C(Cc2ccccc2)C(O)C(O)C1Cc1ccccc1 (stereo not shown) [Example 12B]
pKi [1, 5]: 6.00 to 8.00
IC90 [2, 6]: > 100 µg/mL

CN(C)C(=O)c1cccc(CN2C(=O)N(Cc3cccc(C(=O)N(C)C)c3)C(Cc3ccccc3)C(O)C(O)C2Cc2ccccc2)c1 (stereo not shown) [11S]
pKi [1, 3]: 6.00 to 8.00
IC90 ([2]; Table 2d, class symbols): +++ (+++=<10 μg/mL)

Nc1noc2ccc(CN3C(=O)N(Cc4ccc5onc(N)c5c4)C(Cc4ccccc4)C(O)C(O)C3Cc3ccccc3)cc12 (stereo not shown) [15DG]
pKi [1, 4]: > 8.00
IC90 ([2]; Table 2d, HIV RNA assay): +++ (+++=<10 μg/mL)

Nc1cccc(CN2C(=O)N(Cc3ccc4ccccc4c3)C(Cc3ccccc3)C(O)C(O)C2Cc2ccccc2)c1 (stereo not shown) [15WU]
pKi [1, 5]: > 8.00
IC90 [2, 6]: < 10 µg/mL

O=C1N(CCCCCO)C(Cc2ccccc2)C(O)C(O)C(Cc2ccccc2)N1Cc1ccccc1 (stereo not shown) [Example 15VI]
pKi [1, 5]: > 8.00
IC90 [2, 6]: < 10 µg/mL

NC(=NO)c1cccc(CN2C(=O)N(Cc3cccc(C(N)=NO)c3)C(Cc3ccc(F)cc3)C(O)C(O)C2Cc2ccc(F)cc2)c1 (stereo not shown) [20X]
pKi ([1]; read-out: HPLC Ki, Table 2i): > 8.00
IC90 ([2]; Human immunodeficiency virus 1, MT2, Table 2i, read-out: IC90): < 10 µg/mL

O=C1N(Cc2ccc(CO)cc2)C(Cc2ccccc2)C(O)C(O)C(Cc2ccccc2)N1Cc1ccc(CO)cc1 (stereo not shown) [Example 13S]
pKi [1, 5]: 6.00 to 8.00
IC90 ([2]; Table 2d, class symbols): ++ (++=10 to 100 μg/mL)

Nc1n[nH]c2ccc(CN3C(=O)N(Cc4ccc5[nH]nc(N)c5c4)C(Cc4ccccc4)C(O)C(O)C3Cc3ccccc3)cc12 (stereo not shown) [15DF]
pKi [1, 4]: > 8.00
IC90 ([2]; Table 2d, HIV RNA assay): +++ (+++=<10 μg/mL)

O=C(NCc1ccccn1)c1cccc(CN2C(=O)N(Cc3cccc(-c4cc[nH]n4)c3)C(Cc3ccccc3)C(O)C(O)C2Cc2ccccc2)c1 (stereo not shown) [15CB]
pKi [1, 4]: > 8.00
IC90 ([2]; Table 2d, HIV RNA assay): +++ (+++=<10 μg/mL)

O=C1N(CCCCCO)C(Cc2ccccc2)C(O)C(O)C(Cc2ccccc2)N1Cc1cccc(CO)c1 (stereo not shown) [Example 15WE]
pKi [1, 5]: > 8.00
IC90 [2, 6]: < 10 µg/mL

O=C(NCCCCCN1C(=O)N(CCCCCNC(=O)c2cnccn2)C(Cc2ccccc2)C(O)C(O)C1Cc1ccccc1)c1cnccn1 (stereo not shown) [15FF]
pKi ([1]; HIV protease inhibition, HPLC method, Table 2d, read-out: HPLC K1): < 6.00
IC90 ([2]; HIV RNA assay, HIV-1 infected MT-2 cells, Table 2d): ++/+ (The ++/+ is used in the cases where an IC90 was determined to be >50 μg/mL)
